Assay: logP by HPLC on reverse-phase column (EEC Directive 79/831 Annex V.A8)
Assay type: physicochemical
Details: for chromatographic logP: reverse-phase C18 HPLC column, pH 2.7, HPLC
Experimental: The logP values reported in the above Tables and Preparation Examples were determined according to EEC Directive 79/831 Annex V.A8 by HPLC (High Performance Liquid Chromatography) on a reverse-phase column (C18). Temperature 43° C.

[1] = HPLC, C18 reverse phase, 43° C., acidic range pH 2.7, calibration with alkan-2-ones
[2] = C18 reverse phase, 43° C., acidic range pH 2.7, calibration with alkan-2-ones

Structure (SMILES) | chromatographic logP [2] | also measured
COC(=O)C(C)NC(=O)c1ccc(C=CC(=O)NC(c2cccc(C(F)(F)F)c2)C(F)(F)F)cc1Cl (mixture of isomers) [Ia-191] |  | logP (HPLC-MS): HPLC-MS: logP = 3.29; mass
CCC(C)NC(=O)c1ccc(C=CC(=O)NC(c2cccc(C(F)(F)F)c2)C(F)(F)F)cc1Cl (mixture of isomers) [Ia-192] |  | logP (HPLC-MS): HPLC-MS: logP = 3.71; mass
O=C(C=Cc1ccc(C(=O)NCC=CCl)c(Cl)c1)NC(c1cccc(C(F)(F)F)c1)C(F)(F)F (mixture of isomers) [Ia-193] |  | logP (HPLC-MS): HPLC-MS: logP = 3.58; mass
ON=C(c1cc(F)cc(C(F)(F)F)c1)C(F)(F)F (racemic) [2,2,2-Trifluoro-1-[3-fluoro-5-(trifluoromethyl)phenyl]ethanone oxime] | 3.17 | logP [1]: 3.21
Cn1nccc1NC(=O)c1ccc(/C=C/C(=O)NC(c2cccc(C(F)(F)F)c2)C(F)(F)F)cc1Cl (racemic) [Ia-188] |  | logP (HPLC-MS): HPLC-MS: logP = 2.73; mass
Cn1nccc1CNC(=O)c1ccc(/C=C/C(=O)NC(c2cccc(C(F)(F)F)c2)C(F)(F)F)cc1Cl (racemic) [Ia-189] |  | logP (HPLC-MS): HPLC-MS: logP = 2.93; mass
O=C(/C=C/c1ccc(C(=O)Nc2ncc(Cl)cn2)c(Cl)c1)NC(c1cccc(C(F)(F)F)c1)C(F)(F)F (racemic) [Ia-199] |  | logP (HPLC-MS): HPLC-MS: logP = 3.47; mass
N#Cc1cc(/C=C/C(=O)NC(c2cccc(C(F)(F)F)c2)C(F)(F)F)ccc1-n1cccn1 (racemic) [Ia-201] |  | logP (HPLC-MS): HPLC-MS: logP = 3.5; mass
N#Cc1cnn(-c2ccc(/C=C/C(=O)NC(c3ccc(F)c(Cl)c3)C(F)(F)F)cc2Cl)c1 (racemic) [Ia-202] |  | logP (HPLC-MS): HPLC-MS: logP = 3.77; mass
O=C(/C=C/c1ccc(C(=O)Nc2cnccn2)c(Cl)c1)NC(c1cccc(C(F)(F)F)c1)C(F)(F)F (racemic) [Ia-216] |  | logP (HPLC-MS): HPLC-MS: logP = 3.31; mass
O=C(NC1CC1)c1cc2cc(C(=O)NC(c3cccc(C(F)(F)F)c3)C(F)(F)F)n(Cc3ccccc3)c2cc1Cl (racemic) [Ic-28] |  | logP [1]: HPLC-MS: logP = 4.25; mass
CNC(=O)c1cc2cc(C(=O)NC(c3cccc(C(F)(F)F)c3)C(F)(F)F)n(C)c2cc1Cl (racemic) [Ic-30] |  | logP [1]: HPLC-MS: logP = 3.2; mass (m/z):
C#CC(C)NC(=O)c1cc2cc(C(=O)NC(c3cccc(C(F)(F)F)c3)C(F)(F)F)n(C)c2cc1Cl (racemic) [Ic-31] |  | logP [1]: HPLC-MS: logP = 3.73; mass
Cn1c(C(=O)NC(c2cccc(C(F)(F)F)c2)C(F)(F)F)cc2cc(C(=O)NC3CSC3)c(Cl)cc21 (racemic) [Ic-33] |  | logP [1]: HPLC-MS: logP = 3.82; mass
NC(c1cc(Cl)cc(C(F)(F)F)c1)C(F)(F)F (stereo not shown) [1-[3-Chloro-5-(trifluoromethyl)phenyl]-2,2,2-trifluoroethanamine] | 2.94 | 
NCc1ccc(Br)cc1C(F)(F)F [1-[4-Bromo-2-(trifluoromethyl)phenyl]methanamine] | 0.92 | 
NC(c1cc(Cl)c(Cl)c(Cl)c1)C(F)(F)F (stereo not shown) [2,2,2-Trifluoro-1-(3,4,5-trichlorophenyl)ethanamine] | 3.17 | 
O=C(c1cc(F)cc(C(F)(F)F)c1)C(F)(F)F [2,2,2-Trifluoro-1-[3-fluoro-5-(trifluoromethyl)phenyl]ethanone] | 2.54 | 
CC(F)(F)C(=O)c1cccc(C(F)(F)F)c1 [2,2-Difluoro-1-[3-(trifluoromethyl)phenyl]propan-1-one] | 3.61 | 
O=C(O)c1ccc2cc(C(=O)NC(c3cccc(C(F)(F)F)c3)C(F)(F)F)oc2c1 (stereo not shown) [2-({2,2,2-Trifluoro-1-[3-(trifluoromethyl)phenyl]ethyl}carbamoyl)-1-benzofuran-6-carboxylic acid] | 3.1 | 
O=C(/C=C/c1ccc(C(=O)O)c(Br)c1)NC(c1cccc(C(F)(F)F)c1)C(F)(F)F (stereo not shown) [2-Bromo-4-[(1E)-3-oxo-3-({2,2,2-trifluoro-1-[3-(trifluoromethyl)phenyl]ethyl}amino)prop-1-en-1-yl]benzoic acid] | 3.15 | 
O=C(/C=C/c1ccc(C(=O)O)c(Cl)c1)NC(c1cccc(C(F)(F)F)c1)C(F)(F)F (stereo not shown) [2-Chloro-4-[(1E)-3-oxo-3-({2,2,2-trifluoro-1-[3-(trifluoromethyl)phenyl]ethyl}amino)prop-1-en-1-yl]benzoic acid] | 3.1 | 
O=C(C#Cc1ccc(C(=O)NC2CC2)c(Cl)c1)NC(c1cccc(C(F)(F)F)c1)C(F)(F)F (stereo not shown) [2-Chloro-N-cyclopropyl-4-[3-oxo-3-({2,2,2-trifluoro-1-[3-(trifluoromethyl)phenyl]ethyl}amino)prop-1-yn-1-yl]benzamide] | 3.34 | 
O=C(NC1CC1)c1ccc(I)cc1Cl [2-Chloro-N-cyclopropyl-4-iodobenzamide] | 2.13 | 

Structure (SMILES) | chromatographic logP [2] | also measured
Cc1cc(/C=C/C(=O)NC(c2cccc(C(F)(F)F)c2)C(F)(F)F)ccc1C(=O)O (stereo not shown) [2-Methyl-4-[(1E)-3-oxo-3-({2,2,2-trifluoro-1-[3-(trifluoromethyl)phenyl]ethyl}amino)prop-1-en-1-yl]benzoic acid] | 3.14 | 
Cc1cc(Br)ccc1C(=O)NCc1ccccn1 [4-Bromo-2-methyl-N-(pyridin-2-ylmethyl)benzamide] | 1.4 | 
O=C(Nc1ccccn1)c1ccc(Br)cc1C(F)(F)F [4-Bromo-N-(pyridin-2-yl)-2-(trifluoromethyl)benzamide] | 2.57 | 
O=C(NCc1ccccn1)c1ccc(Br)cc1C(F)(F)F [4-Bromo-N-(pyridin-2-ylmethyl)-2-(trifluoromethyl)benzamide] | 1.56 | 
O=C(NC1CC1)c1ccc(Br)cc1C(F)(F)F [4-Bromo-N-cyclopropyl-2-(trifluoromethyl)benzamide] | 2.13 | 
O=C(/C=C/c1ccc(C(=O)O)c(C(F)(F)F)c1)NC(c1cccc(C(F)(F)F)c1)C(F)(F)F (stereo not shown) [4-[(1E)-3-Oxo-3-({2,2,2-trifluoro-1-[3-(trifluoromethyl)phenyl]ethyl}amino)prop-1-en-1-yl]-2-(trifluoromethyl)benzoic acid] | 3.29 | 
NCc1ccc2oc(C(=O)NC(c3cccc(C(F)(F)F)c3)C(F)(F)F)cc2c1 (stereo not shown) [5-(Aminomethyl)-N-{2,2,2-trifluoro-1-[3-(trifluoromethyl)phenyl]ethyl}-1-benzofuran-2-carboxamide] | 2.02 | 
CC(C)(C)OC(=O)c1ccc2cc(C(=O)O)oc2c1 [6-(tert-Butoxycarbonyl)-1-benzofuran-2-carboxylic acid] | 2.58 | 
CCOC(=O)c1cc2ccc(C(=O)OC(C)(C)C)cc2o1 [6-tert-Butyl 2-ethyl 1-benzofuran-2,6-dicarboxylate] | 4.32 | 
NC1CCc2cc(/C=C/C(=O)NC(c3cccc(C(F)(F)F)c3)C(F)(F)F)ccc21 (stereo not shown) [(2E)-3-(1-Amino-2,3-dihydro-1H-inden-5-yl)-N-{2,2,2-trifluoro-1-[3-(trifluoromethyl)phenyl]-ethyl}acrylamide] | 1.7 | 
Nc1cccc(/C=C/C(=O)NC(c2cccc(C(F)(F)F)c2)C(F)(F)F)c1 (stereo not shown) [(2E)-3-(3-Aminophenyl)-N-{2,2,2-trifluoro-1-[3-(trifluoromethyl)phenyl]ethyl}acrylamide] | 2.88 | 
O=C(/C=C/c1cccc([N+](=O)[O-])c1)NC(c1cccc(C(F)(F)F)c1)C(F)(F)F (stereo not shown) [(2E)-3-(3-Nitrophenyl)-N-{2,2,2-trifluoro-1-[3-(trifluoromethyl)phenyl]ethyl}acrylamide] | 3.81 | 
N#Cc1cc(/C=C/C(=O)O)ccc1-n1cncn1 [(2E)-3-[3-Cyano-4-(1H-1,2,4-triazol-1-yl)phenyl]acrylic acid] | 0.97 | 
NCc1ccc(/C=C/C(=O)NC(c2cccc(C(F)(F)F)c2)C(F)(F)F)cc1C(F)(F)F (stereo not shown) [(2E)-3-[4-(Aminomethyl)-3-(trifluoromethyl)phenyl]-N-{2,2,2-trifluoro-1-[3-(trifluoro-methyl)phenyl]ethyl}acrylamide] | 1.61 | 
Cc1cc(/C=C/C(=O)O)ccc1C(=O)NC1CC1 [(2E)-3-[4-(Cyclopropylcarbamoyl)-3-methylphenyl]acrylic acid] | 1.14 | 
O=C(O)/C=C/c1ccc(C(=O)NC2CC2)c(C(F)(F)F)c1 [(2E)-3-[4-(Cyclopropylcarbamoyl)-3-trifluoromethylphenyl]acrylic acid] | 1.34 | 
N/C(=N\O)c1ccc(/C=C/C(=O)NC(c2cccc(C(F)(F)F)c2)C(F)(F)F)cc1C(F)(F)F (stereo not shown) [(2E)-3-[4-(N′-Hydroxycarbamimidoyl)-3-(trifluoromethyl)phenyl]-N-{2,2,2-trifluoro-1-[3-(trifluoromethyl)phenyl]ethyl}acrylamide] | 2.55 | 
O=C(O)/C=C/c1ccc(C(=O)NCc2ccccc2)c(C(F)(F)F)c1 [(2E)-3-[4-(Phenylmethyl)carbamoyl)-3-trifluoromethylphenyl]acrylic acid] |  | logP (pH 2.7): 2.12
O=C(O)/C=C/c1ccc(C(=O)Nc2ccccn2)c(C(F)(F)F)c1 [(2E)-3-[4-(Pyridin-2-yl)carbamoyl)-3-trifluoromethylphenyl]acrylic acid] |  | logP (pH 2.7): 1.69
O=C(O)/C=C/c1ccc(C(=O)NCc2ccccn2)c(C(F)(F)F)c1 [(2E)-3-[4-(Pyridin-2-ylmethyl)carbamoyl)-3-trifluoromethylphenyl]acrylic acid] |  | logP (pH 2.7): 0.91
CC(C)(C)OC(=O)NCc1ccc(/C=C/C(=O)O)cc1C(F)(F)F [(2E)-3-[4-{[tert-Butoxycarbonyl)amino]methyl}-3-(trifluoromethyl)phenyl]acrylic acid] | 2.67 | 
O=C(O)/C=C/c1cc(C(F)(F)F)c(C(=O)NC2CC2)cn1 [(2E)-3-[5-(Cyclopropylcarbamoyl)-4-(trifluoromethyl)pyridin-2-yl]acrylic acid] | 1.26 | 
CC(C)(C)OC(=O)NC1CCc2cc(/C=C/C(=O)O)ccc21 (stereo not shown) [(2E)-3-{1-[(tert-Butoxycarbonyl)amino]-2,3-dihydro-1H-inden-5-yl}acrylic acid] | 2.47 | 
CCOC(=O)c1cc(I)c(N)cc1Cl [Ethyl 4-amino-2-chloro-5-iodobenzoate] | 2.95 | 

— patent US8889878B2, “Haloalky-substituted amides as insecticides and acaricides” (Bayer CropScience AG, priority 2009, dated 2014)
